Experimental findings from patent US20240238425A1, “HSD17B13 Inhibitors and/or Degraders” (Pfizer Inc., priority 2022, published 2024) are described below.

This assay concerns HiBiT-HSD17β13 fusion protein (N-terminal HiBiT-tagged HSD17β13 isoform D) in Huh7 HiBiT-HSD17β13 OE cells. The assay can be described thus: Whole-cell Huh7-HSD17B13 HiBiT assay (degrader potency and maximal efficacy, luminescence readout). As to conditions: 24 hour incubation, geometric mean, * = geometric mean for all forms tested (parent and salt forms). The assay is classed as cell-based, human. Put shortly:
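Huh7 cells stably overexpressing N-terminal HiBiT-tagged HSD17β13 isoform D, clone matched to primary hepatocyte expression, were exposed to an 11-point, 1 in 3.162 dilution series (top 1 μM final) for 24 h at 37° C. Lytic HiBiT luminescence was normalised to DMSO and parental-cell controls; DC50 from four-parameter logistic fit, with CellTiter-Glo counter screen.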
A general note: The HiBiT peptide binds its large partner to form an active luciferase.

SMILES strings stand for the structures. Where a name gives a salt, the structure may show the parent alone.

As a reminder, the DC50 is the concentration at which degradation of the target reaches its halfway point. In the case of `Cn1nc(N2CCC(=O)NC2=O)c2ccc(CCCN3CCN(c4nccc(-c5nc([C@]67CC[C@](CNC(=O)c8cc(F)c(O)c(F)c8F)(CC6)CC7)no5)n4)CC3)cc21` [Example 133, N-[(4-{5-[2-(4-{3-[3-(2,4-dioxo-1,3-diazinan-1-yl)-1-methyl-1H-indazol-6-yl]propyl}piperazin-1-yl)pyrimidin-4-yl]-1,2,4-oxadiazol-3-yl}bicyclo[2.2.2]octan-1-yl)methyl]-2,3,5-trifluoro-4-hydroxybenzamide, trifluoroacetate salt], the 50% degradation concentration (DC50) (read-out: Huh7_HIBIT-HSD17β13_DC50 GMean DC50) is 2.1 nM. In addition, the “Huh7_HIBIT-HSD17β13_DC50 GMean Asymptote Maximum” value (max. concentration 1 μM) is listed as 73%.
